Columns and labels:
Test in all cases: relative viability (nuclei count vs DMSO), 5 days (fraction); higher = more cells survive
[1] = compound: CCN(CC)CCNC(=O)c1c(C)[nH]c(/C=C2\C(=O)Nc3ccc(F)cc32)c1C [Sunitinib] + CS(=O)(=O)CCNCc1ccc(-c2ccc3ncnc(Nc4ccc(OCc5cccc(F)c5)c(Cl)c4)c3c2)o1 [Lapatinib] (partner 2 µM)
How it was run: (§1)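 Dosing by pin tool came one day after lung cancer cell lines were seeded in 1536-well plates, using either one drug or a fixed anchor-drug dose plus five library-drug doses (not always all listed) in √10 steps. After 5 days, nuclei were counted on 4× images. Relative viability is treated-well nuclei count divided by vehicle-well nuclei count, and values are medians of duplicate plates.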

[2] = compound: CCN(CC)CCNC(=O)c1c(C)[nH]c(/C=C2\C(=O)Nc3ccc(F)cc32)c1C [Sunitinib] + Nc1ncn([C@H]2C[C@H](O)[C@@H](CO)O2)c(=O)n1 [Decitabine] (partner 2 µM)
How it was run: as §1

[3] = compound: CCN(CC)CCNC(=O)c1c(C)[nH]c(/C=C2\C(=O)Nc3ccc(F)cc32)c1C [Sunitinib] + CC(C)C[C@H](NC(=O)[C@H](Cc1ccccc1)NC(=O)c1cnccn1)B(O)O [Bortezomib] (partner 0.002 µM)
How it was run: as §1

[4] = compound: CCN(CC)CCNC(=O)c1c(C)[nH]c(/C=C2\C(=O)Nc3ccc(F)cc32)c1C [Sunitinib] + NC(=O)Nc1cc(-c2cccc(F)c2)sc1C(=O)N[C@H]1CCCNC1 [AZD7762] (partner 0.2 µM)
How it was run: as §1

Cell Line | relative viability ([1]; first compound 0.02 µM) | relative viability ([1]; first compound 0.2 µM) | relative viability ([1]; first compound 0.6325 µM) | relative viability ([2]; first compound 0.02 µM) | relative viability ([2]; first compound 0.06325 µM) | relative viability ([2]; first compound 0.2 µM) | relative viability ([2]; first compound 0.6325 µM) | relative viability ([2]; first compound 2 µM) | relative viability ([3]; first compound 0.02 µM) | relative viability ([3]; first compound 0.06325 µM) | relative viability ([3]; first compound 0.2 µM) | relative viability ([3]; first compound 0.6325 µM) | relative viability ([1]; first compound 0.06325 µM) | relative viability ([1]; first compound 2 µM) | relative viability ([3]; first compound 2 µM) | relative viability ([4]; first compound 0.02 µM) | relative viability ([4]; first compound 0.06325 µM) | relative viability ([4]; first compound 0.2 µM) | relative viability ([4]; first compound 0.6325 µM) | relative viability ([4]; first compound 2 µM)
A549 | 1.03 | 1.21 | 1.03 | 0.248 | 0.293 | 0.252 | 0.272 | 0.306 | – | – | – | – | – | – | – | – | – | – | – | –
COR-L23 | 0.71 | 0.983 | 1.14 | 0.435 | 0.482 | 0.426 | 0.505 | 0.451 | 0.995 | 1.02 | 1 | 1.13 | 1.18 | 0.951 | – | – | – | – | – | –
COR-L 105 | 0.336 | 0.358 | 0.36 | 0.692 | 0.734 | 0.663 | 0.649 | 0.607 | 0.977 | 0.877 | 0.923 | 1.01 | 0.459 | 0.372 | 0.823 | – | – | – | – | –
IA-LM | 0.674 | 0.804 | 0.81 | – | – | – | – | – | 0.831 | 0.85 | 0.868 | 1.12 | 0.917 | 0.947 | 1.18 | – | – | – | – | –
LK-2 | 0.773 | 1.15 | 0.939 | 0.238 | 0.409 | 0.299 | 0.316 | 0.279 | – | – | – | – | – | 0.866 | – | 0.35 | 0.571 | 0.352 | 0.414 | 0.443
NCI-H358 | 0.421 | 0.457 | 0.514 | 0.236 | 0.217 | 0.22 | 0.197 | 0.192 | – | – | – | – | 0.6 | 0.377 | – | 0.59 | 0.596 | 0.637 | 0.427 | 0.449
NCI-H520 | 0.786 | 0.964 | 0.916 | 0.487 | 0.499 | 0.55 | 0.577 | 0.537 | 0.738 | 0.785 | 0.638 | 0.783 | – | – | 0.819 | – | – | – | – | –
NCI-H522 | – | – | – | 0.594 | 0.675 | 0.735 | 0.719 | 0.717 | – | – | – | – | – | – | – | 0.839 | – | 0.73 | 0.848 | 0.942
NCI-H661 | 0.433 | 0.527 | 0.582 | 0.509 | 0.578 | 0.544 | 0.56 | 0.597 | – | 0.77 | 0.801 | 1 | 0.453 | 0.448 | 0.87 | – | – | – | – | –
NCI-H1299 | 0.956 | 0.992 | 0.932 | – | – | – | – | – | 0.999 | 1.06 | 1.01 | – | 0.988 | 0.953 | 1 | – | – | – | – | –
NCI-H1395 | 0.947 | 1.07 | 1.16 | 0.712 | 0.659 | 0.721 | 0.72 | 0.639 | – | – | – | – | 1.17 | 1 | – | 0.422 | 0.431 | 0.413 | 0.418 | 0.421
NCI-H1563 | 0.925 | 1.03 | 1.09 | – | – | – | – | – | 0.752 | 0.918 | 0.897 | 0.906 | 0.988 | 1.05 | 0.771 | – | – | – | – | –
NCI-H1648 | – | – | – | 0.46 | 0.647 | 0.633 | 0.55 | 0.681 | – | – | – | – | – | – | – | 0.702 | 0.814 | 0.694 | 0.715 | 0.828
NCI-H1650 | 0.559 | 0.769 | 0.739 | 0.45 | 0.379 | 0.315 | 0.475 | 0.416 | 0.194 | 0.226 | 0.192 | 0.203 | – | 0.737 | 0.211 | – | – | – | – | –
NCI-H1793 | – | 0.828 | 0.651 | – | 0.496 | 0.487 | 0.549 | 0.49 | – | – | – | – | 0.675 | 0.484 | – | – | 0.448 | 0.44 | 0.377 | 0.334
NCI-H2009 | 0.929 | 0.995 | – | 0.349 | 0.364 | 0.371 | 0.424 | 0.373 | 0.973 | – | 1.01 | 1.17 | 1.34 | 1.18 | 1.18 | – | – | – | – | –
NCI-H2023 | 0.912 | 0.998 | 0.814 | 0.242 | 0.225 | 0.247 | 0.243 | 0.217 | 0.921 | 1.13 | 1.11 | 1.22 | 1.09 | 0.91 | – | – | – | – | – | –
NCI-H2228 | 1.04 | 1.13 | 1.16 | – | – | – | – | – | 1.04 | 1.14 | 1.22 | 1.15 | 1.23 | – | 1 | – | – | – | – | –
NCI-H2342 | – | – | – | 0.751 | 0.784 | 0.708 | 0.819 | 0.718 | – | – | – | – | – | – | – | 0.48 | 0.601 | 0.649 | 0.505 | 0.556
SK-LU-1 | 0.942 | 1.06 | 1.02 | 0.571 | 0.688 | 0.635 | 0.651 | 0.603 | 0.959 | 1.26 | 1.38 | 1.36 | 0.853 | 0.809 | 0.982 | – | – | – | – | –
SK-MES-1 | 0.471 | 0.487 | 0.481 | 0.345 | 0.369 | 0.368 | 0.389 | 0.379 | – | – | – | – | 0.502 | 0.419 | – | – | – | – | – | –
SW 1573 | 1.19 | 1.31 | 1.14 | 0.403 | 0.508 | 0.556 | 0.62 | 0.554 | 0.944 | 1.11 | 1.2 | 1.22 | 1.3 | – | 1 | – | – | – | – | –
UMC-11 | 0.984 | 1.07 | 1.03 | 0.553 | 0.551 | 0.583 | 0.737 | 0.597 | 0.61 | – | 0.841 | 0.762 | – | 0.967 | 0.896 | – | – | – | – | –
